What all share (assay): 3' UTR reporter interaction score (median-centred robust z-score of log2 firefly/Renilla activity); higher = less repression of the 3' UTR reporter
Details in all cases: HEK293T; 48 h

One series concerns NOTCH1. The method, boiled down: (§1)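 For the interaction score, the firefly/Renilla ratio was log-transformed, expressed as a robust z-score per plate using median and median absolute deviation, and median-centred per miRNA; a more negative score indicates interaction. These scores come from at least two independent screens, averaged. Each screen used HEK293T cells at 10,000/well in 96-well plates, co-transfected with DharmaFECT Duo carrying 100 ng luc2P 3' UTR reporter, 20 ng pRL-TK and 2.5 pmol miRNA mimic, with luciferase read at 48 h.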

In another series the test system is EZH2. The method in brief:
as §1

The test system of the next series is HRAS. The method, boiled down: as §1
In another series the test system is MYCN. The method, boiled down: as §1
For a further series, the system named is RB1. The method in brief: as §1
Another series deals with MYB. The method in brief: as §1
A further series concerns BRCA2. The method in brief: as §1
The next series deals with MYC. The method, boiled down: as §1
In another series the test system is ZEB2. The method in brief: as §1
The subject of the next series is PHF6. The method, boiled down: as §1
The next series deals with PHOX2B. The method in brief:
as §1

The test system of the next series is MYT1L. The method in brief:
as §1

The next series has as its system TP53. The method in brief: as §1
In the next series the test system is FBXW7. The method, boiled down: as §1

UGGACGGAGAACUGAUAAGGGU: the “3' UTR reporter interaction score” value is -0.401 in the series on NOTCH1; -0.0404 with EZH2; -0.151 with HRAS; -0.133 in the series on MYCN; -0.376 in the series with RB1; 0.576 with MYB. Further, the “3' UTR reporter interaction score” value is 0.362 with BRCA2; -0.199 with MYC; 0.823 with ZEB2; 0.399 with PHF6; -1.18 with PHOX2B; 0.408 in the series with MYT1L. In addition, the “3' UTR reporter interaction score” value came to 0.461 in the series on TP53 and 0.0713 in the series on FBXW7.

UAGCAGCACAUCAUGGUUUACA: the “3' UTR reporter interaction score” value in the series on NOTCH1 is -0.541; in the series with EZH2 it was -0.225; in the series with HRAS it was -0.34; in the series on MYCN, 0.0626; with RB1, 0.792; in the series on MYB it was -1.34. Moreover, the “3' UTR reporter interaction score” value in the series on BRCA2 is -0.138; in the series on MYC, 0.39; with ZEB2, 2.82; with PHF6, 0.453; in the series with PHOX2B, 0.488; with MYT1L, -3.09. In addition, the “3' UTR reporter interaction score” value in the series with TP53 was -0.579; in the series with FBXW7 it was -2.93.

Consider CUUCUUGUGCUCUAGGAUUGU, for which the “3' UTR reporter interaction score” value with NOTCH1 is -0.719; in the series on EZH2, 0.0594; in the series with HRAS, 0.138; in the series on MYCN, 0.82; in the series with RB1 it was 0.605; in the series on MYB it was 0.218. Further, the “3' UTR reporter interaction score” value is -1.63 in the series with BRCA2; 0.759 in the series on MYC; 0.0232 in the series with ZEB2; -0.418 with PHF6; -1.49 in the series with PHOX2B; -0.427 with MYT1L. Moreover, the entries for the “3' UTR reporter interaction score” value in the series on TP53 and in the series with FBXW7 were -0.0486 and -1.11, respectively.

For AGCUACAUUGUCUGCUGGGUUUC, the “3' UTR reporter interaction score” value is 0.703 in the series with NOTCH1; 0.0119 in the series with EZH2; 0.0503 in the series on HRAS; 0.451 with MYCN; -3.13 with RB1; -4.52 in the series on MYB. Further, the “3' UTR reporter interaction score” value was -0.328 with BRCA2; 0.427 in the series with MYC; -0.124 in the series with ZEB2; -0.314 in the series with PHF6; 0.602 with PHOX2B; -0.38 in the series with MYT1L. For the same sequence, the results for the “3' UTR reporter interaction score” value in the series with TP53 and in the series on FBXW7 were 0.277 and 1.22, respectively.

As for UAGCACCAUCUGAAAUCGGUU, the “3' UTR reporter interaction score” value with NOTCH1 was 0.229; in the series on EZH2, 0.717; in the series on HRAS it was 0.469; in the series with MYCN, -3.08; in the series on RB1, -0.626; with MYB, 0.702. Also, the “3' UTR reporter interaction score” value with BRCA2 was 0.502; with MYC, 0.338; with ZEB2 it was -0.458; with PHF6, -0.0911; with PHOX2B, -0.351; with MYT1L it was -0.146. Also, the “3' UTR reporter interaction score” value in the series with TP53 was -0.0665; in the series with FBXW7, -3.02.

For the sequence CAAAGCGCUCCCCUUUAGAGGU, the “3' UTR reporter interaction score” value in the series on NOTCH1 is -0.101; in the series with EZH2, 0.467; in the series with HRAS, 1.33; in the series on MYCN, -0.228; in the series with RB1, -1.27; with MYB it was -0.147. Besides, the “3' UTR reporter interaction score” value with BRCA2 was -0.715; in the series on MYC it was 0.756; in the series on ZEB2, 1.31; with PHF6 it was 1.12; with PHOX2B, 0.264; in the series with MYT1L, -0.44. Besides, the results for the “3' UTR reporter interaction score” value in the series on TP53 and with FBXW7 were -0.173 and -0.27, respectively.

For AAUCAUACAGGGACAUCCAGUU, the “3' UTR reporter interaction score” value with NOTCH1 was -0.77; in the series on EZH2 it was 1.15; in the series with HRAS, 0.163; in the series with MYCN it was -0.994; in the series with RB1, -0.451; with MYB it was 0.0607. In addition, the “3' UTR reporter interaction score” value was -0.401 in the series with BRCA2; 0.273 with MYC; -0.725 with ZEB2; -0.265 in the series with PHF6; 1.38 in the series on PHOX2B; 0.474 in the series on MYT1L. Besides, the “3' UTR reporter interaction score” value in the series with TP53 was -0.0235; with FBXW7, 0.98.

As for AAUGACACGAUCACUCCCGUUGA, the “3' UTR reporter interaction score” value in the series on NOTCH1 is -1.98; in the series on EZH2, 0.0535; in the series with HRAS, 0.792; in the series with MYCN, -0.341; in the series on RB1, -0.373; in the series with MYB it was -0.032. Also, the “3' UTR reporter interaction score” value was -1.49 in the series on BRCA2; 0.235 in the series on MYC; 0.878 with ZEB2; -0.214 in the series on PHF6; -0.699 with PHOX2B; -0.645 in the series with MYT1L. Also, the “3' UTR reporter interaction score” value with TP53 was 0.759; in the series on FBXW7 it was 0.139.

With UCAAAUGCUCAGACUCCUGU, the “3' UTR reporter interaction score” value in the series with NOTCH1 was -0.149; in the series with EZH2 it was 0.251; with HRAS it was 0.546; in the series on MYCN, 1.14; with RB1, 1.29; in the series with MYB, -3.31. Moreover, the “3' UTR reporter interaction score” value was -3.48 in the series on BRCA2; -0.559 in the series with MYC; -1 in the series on ZEB2; 0.837 with PHF6; 0.0556 in the series with PHOX2B; -0.983 with MYT1L. Besides, the “3' UTR reporter interaction score” value in the series on TP53 is -0.221; in the series with FBXW7, 0.918.

Source of the values: the supplement of paper PMC5844555.
